# Measurements published in patent US8729048B2, “Methods and materials for assessing responsiveness to PARP inhibitors and platinating agents” (Mayo Foundation for Medical Education and Research, priority 2011, dated 2014).
# “Also recorded” adds a separate entry of the source.
# Assays:
# [1] = test system: NHEJ activity in PEO4 cells; assay: NHEJ end-joining reporter assay, PEO4; assay type: cell-based; conditions: 72 hours
# Text: FIG. 3. Error-prone NHEJ activity is enhanced by PARP inhibitors in PEO1 cells. (A) Schematic of the in vivo NHEJ assay. Pem1-Ad2-EGFP is an EGFP-containing vector with a 2.4 kb intron (Pem1) and one exon (Ad2) inserted into the EGFP cassette. Pem1-Ad2-EGFP was cut with either HindIII or I-SceI to produce linearized substrate with compatible overhangs or incompatible inverted overhangs, respectively. Successfully recircularized plasmid will produce intact EGFP, which can be assayed via flow cytometry. Any residual uncut plasmid, due to the insertion of the Ad2 exon within the EGFP open reading frame, will be EGFP negative. A pCherry plasmid was co-transfected with substrate to correct for transfection efficiency. (B) and (C) Quantitation of NHEJ activity in PEO1 and PEO4 cells transfected with HindIII substrate (B) or I-SceI substrate (C) and exposed to ABT-888 for 72 hours. Each data point represents the mean±SEM from 3 independent experiments.
# The end-joining reporter plasmid pEGFP-Pem1-Ad2 described elsewhere (Wang et al., Nucleic Acids Res., 34:6170-6182 (2006); Seluanov et al., Proc. Natl. Acad. Sci. USA, 101:7624-7629 (2004); and Fattah et al., PLoS Genet., 6:e1000855 (2010); see also (FIG. 3A)) was provided by E. Hendrickson (University of Minnesota, Minneapolis, Minn.) and was digested with either HindIII or I-SceI for 12 hours, and gel purified using a Qiagen gel extraction kit. […]
# [2] = test system: BRCA2-deficient PEO1 cells; assay: Clonogenic assay, PEO1; assay type: cell-based
# Method: FIG. 5. NHEJ is a major contributor to PARP inhibitor effects in BRCA2-deficient cells. (A) Western blots showing knockdown of Ku80 in PEO1 and PEO4 cells. (B) Clonogenic survival of PEO1 and PEO4 cells from (A), which were treated with the indicated ABT-888 concentration for 72 hours, washed, and allowed to form colonies. (C) Western blots following treatment with siRNA targeting luciferase (control), Ku80, PARP1, or both Ku80 and PARP1. (D) Clonogenic viability of PEO 1 and PEO4 cells from (C). Following knockdown, cells were plated onto triplicate plates and allowed to form colonies. (E) Clonogenic survival of PEO1 cells following Artemis knockdown. After treatment with the indicated siRNA, plates were treated with indicated concentration of ABT-888 for 72 hours, washed, and allowed to form colonies. Inset, Western blots showing knockdown using luciferase (control) or Artemis siRNAs in PEO1 cells. (F) Clonogenic survival of PEO1 and PEO4 cells treated for 72 hours with ABT-888 in combination with diluent or 500 nM DNA-PKi. All results are reported as means of triplicate plates±SEM, and are representative of 3 independent experiments.
# FIG. 13. DNA-PK inhibition diminishes the lethality of multiple PARP inhibitors in PEO1 cells. (A) Representative clonogenic plates after PEO1 cells were treated with ABT-888 (0, 5, or 20 μM) with or without 500 nM DNA-PKi. (B, C) Bar graphs comparing clonogenic survival of PEO1 cells exposed to two PARP inhibitors with or without 500 nM DNA-PKi. The PARP inhibitors used for these assays are ABT-888 (B) and AZD2281/olaparib (C). Results are reported as mean±SEM of triplicate plates.
# FIG. 18. Artemis knockdown confers resistance to PARP inhibition and cisplatin in BRCA2-deficient/mutant cells. Clonogenic survival assays of PEO1 shRNA lines continuously exposed to ABT-888 (A) or cisplatin (B), or exposed to ionizing radiation (C). (D-F) Clonogenic survival assays of CAPAN1 shRNA lines exposed to ABT-888 (D), cisplatin (E), or exposed to ionizing radiation (F).
# Colony formation assays were performed on siRNA-transfected PEO1 and PEO4 cells 48 hours after the second transfection. Cells were trypsinized and plated at 750 cells/plate in triplicate 60-mm dishes containing medium A, allowed to grow 10-14 days, and stained with Coomassie Brilliant Blue. Colonies containing ≧50 cells were scored manually. To assess methyl methanesulfonate (MMS) sensitivity, PEO1 or PEO4 cells were incubated for 48 hours after the second siRNA treatment, plated onto 60-mm dishes, allowed to adhere for 4 hours, exposed to the indicated concentration of MMS (Sigma-Aldrich) for 1 hour, washed with sterile RPMI 1640, and allowed to grow into colonies in medium A. For drug treatment, cells (without siRNA) were allowed to adhere for 4-6 hours, then treated with the indicated concentrations of ABT-888 and/or AZ12594248 for 72 hours. Following drug treatment, cells were washed with drug-free RPMI 1640, cultured for 10-14 days in medium A, and stained. For HCC1937 and HCC1937/BRCA1 cells, a similar procedure was used with several changes: 1000 cells were plated in medium B, and treatment was continuous for 16-20 days. M059J and M059J+DNA-PKcs were plated at 1000 cells per plate in medium C and treated for 48 hours. GM16666 and 16667 were plated at 1000 cells per plate in medium D and treated for 48 hours.
smiles,measurement,setting,value
C[C@]1(c2nc3c(C(N)=O)cccc3[nH]2)CCCN1 [ABT-888],end-joining of HindIII-linearized substrate,[1],little effect; also recorded: small increase in end-joining
same,clonogenic survival,"[2]; PEO1 cells, 72 hours",decreased the clonogenic survival
same,clonogenic survival with ABT-888 after siRNA depletion of Artemis,"[2]; PEO1 cells, Artemis siRNA, 72 hours",reversed the lethality
same,clonogenic survival with ABT-888 after Ku80 knockdown,"[2]; PEO1 cells, Ku80 siRNA, 72 hours",markedly enhanced the survival
same,clonogenic sensitivity after stable Artemis knockdown,"[2]; PEO1 shRNA lines, continuous exposure",conferred resistance
CCN1CCN(CC(=O)Nc2ccc(-c3cccc4c(=O)cc(N5CCOCC5)oc34)c3sc4ccccc4c23)CC1 [AZ 12594248],effect of co-administration on AZD2281 clonogenic lethality,"[2]; PEO1 cells, 500 nM DNA-PKi",diminished the effects
same,effect of co-administration on ABT-888 clonogenic lethality,"[2]; PEO1 cells, 500 nM DNA-PKi, 72 hours",diminished the effects
